Measured values: US10258561B2, “Cosmetic composition containing a brown alga extract, a yeast extract and ascorbic acid” (LVMH RECHERCHE, priority 2013, dated 2019)

Test system: synthesis of procollagen I by normal human fibroblasts (NHF)
Assay: Synthesis of type I procollagen by aged normal human fibroblasts, ELISA on culture supernatants
Format: cell-based
Details: active agents alone
From the text: The influence of the extracts constituting the combination of the invention on the synthesis of procollagen I by normal human fibroblasts (NHF) is studied. Procollagen is a precursor form of collagen secreted in the extracellular medium where the ends are cut in order to result in the collagen subunit. The combining of these collagen molecules will subsequently create the collagen fibers. 1. Cell Model • Type: Normal human fibroblasts (NHF), aged by passages in culture (20th passage). • Culturing conditions: 37° C., 5% CO2. • Culture medium: (Invitrogen 21090-22) supplemented with L-glutamine 2 mM, penicillin 50 UI/ml-streptomycin 50 μg/ml, 10% FCS (Biowest S1810). • Test medium: […]. The active agents are dissolved in the culture medium at the concentration specified in the following table. The synthesis of type I procollagen by these cells was evaluated by the ELISA technique from the culture supernatants of aged fibroblasts. The NHFs are cultured in a 96-well microplate at the rate of 7500 cells/well for 24 hours. At 80% confluence, the medium is replaced with the test medium containing the active agents to be tested or the references. The cells are incubated for 72 hours. The culture supernatants are subsequently recovered and stored at −20° C. while awaiting assaying. […] The amounts of procollagen I are expressed as ng/mg of protein. […]

O=C1O[C@H]([C@@H](O)CO)C(O)=C1O [Vitamin C, Ascorbic acid]
Procoll. I (ng/mg of prot) (aged NHF (20th passage), 72 hours, untreated control 1439 ± 161): 2431 ± 55 ng/mg of prot
Variation (vs untreated control): +67%
